Legend:
[1] = system: NPCs from the SVZ of Ts65Dn mice; assay: Proliferation of NPC cultures (Cell Titer-Glo); format: cell-based, mouse; conditions: 96 h
Protocol: Cells were isolated from the subventricular zone (SVZ) of the lateral ventricle and the subgranular zone (SGZ) of the hippocampal dentate gyrus (DG) of newborn (P1-P2) euploid and Ts65Dn mice. Briefly, brains were removed, the SVZ and SGZ regions were isolated and individually collected in ice-cold PIPES buffer pH 7.4. After centrifugation, tissue was digested for 10 min at 37° C. using Trypsin/EDTA 0.25% (Life Technologies) aided by gentle mechanical dissociation. Cell suspension from each individual mouse was plated onto 25 cm^2 cell-culture flask (Thermo Fisher Scientific) and cultured as floating neurospheres in medium containing basic fibroblast growth factor (bFGF, 10 ng/ml; Peprotech) and epidermal growth factor (EGF, 20 ng/ml; Peprotech) using an established protocol (Meneghini et al., 2014). […] Cell proliferation was quantified as relative luminescence units (RLU) values using Cell Titer-Glo viability assay reagent (Promega) on aVictor^3-V plate reader (PerkinElmer). […] In each experiment, five fields/well (corresponding to about 150-200 cells/well) were counted with a 60× objective by a Leica DMIRB inverted fluorescence microscope. Immunoreactive cells were counted and their percentage over total viable cells was calculated. […]

Ts65Dn and euploid mice = assay: Morris Water Maze, learning phase; format: in vivo, mouse
Protocol: Euploid and Ts65Dn mice received a daily subcutaneous injection (at 9-10 am) of 7,8-DHF (5.0 mg/kg in vehicle) or vehicle from postnatal day 3 (P3) to postnatal day P45-P50. […] These mice will be called here P45 mice. Mice were behaviorally tested in the 6 days that preceded the day of sacrifice (FIG. 2B).
Mice were trained in the MWM task to locate a hidden escape platform in a circular pool, using a previously used protocol (Stagni et al., 2016), that was altogether based on a published protocol (Vorhees and Williams, 2006). The apparatus consisted of a large circular water tank (1.00 m diameter, 50 cm height) with a transparent round escape platform (10 cm^2). The pool was virtually divided into four equal quadrants identified as northeast, northwest, southeast, and southwest. The tank was filled with tap water at a temperature of 22±1.0° C. Mice are more prone to undergo hypothermia than rats and in the MWM hypothermia may cause a reduction in swimming speed (livonen et al., 2003). […] This is consistent with evidence that a temperature of 22° C. is “high enough” to reduce stress and potential hypothermia and “low enough” to maintain the animals' motivation to escape the pool (Costa et al., 2010). The tank was filled with water up to 0.5 cm above the top of the platform and the water was made opaque with milk. The platform was placed in the tank in a fixed position (in the middle of the south-west quadrant). The pool was placed in a large room with various intra (squares, triangles, circles and stars) and extra-maze visual cues. Each mouse was tested in one session of 4 trial on the first day and in two sessions of 4 trials in the following 4 days with an inter-session interval of 45 min. A video camera was placed above the center of the pool and connected to a videotracking system (Ethovision 3.1; Noldus Information Technology B.V., Wageningen, Netherlands). Mice were released facing the wall of the pool from one of the following starting points: North, East, South, or West and allowed to search for up to 60 s for the platform. […] During the inter-trail time (10 s) mice were placed in an empty cage. For the learning phase, we evaluated the latency to find the hidden platform, time in periphery, percentage of time in periphery, path length, proximity to the platform, and swimming speed. Retention was assessed with one trial (probe trial), on the sixth day, 24 h after the last acquisition trial, using the same starting point for all mice. Mice were allowed to search for up to 60 s for the platform. For the probe trial, the latency of the first entrance in the former platform zone, the frequency of entrances in the former quadrant, the proximity to the former platform position (Gallagher's test), the percentage of time spent at the periphery (thigmotaxis), the swimming speed and the percentage of time spent in each quadrant were employed as measures of retention of acquired spatial preference. All experimental sessions were carried out between 9.00 am and […]. The following number of mice were tested. Untreated euploid mice: n=19; untreated Ts65Dn mice: n=14; 7,8-DHF-treated euploid mice: n=17; 7,8-DHF-treated Ts65Dn mice: n=16. Three untreated euploid mice (yielding n=16), one 7,8-DHF-treated euploid mouse (yielding n=16) and one 7,8-DHF-treated Ts65Dn mouse (yielding n=15) were excluded from MWM analysis due to thigmotaxis for a whole recording session.

Compound: O=c1cc(-c2ccccc2)oc2c(O)c(O)ccc12 [7,8-DHF, 7,8-dihydroxyflavone]
- proliferation rate of trisomic NPCs ([1]; highest concentration 10.0 μM): reduced proliferation
- proliferation rate of trisomic NPCs ([1]; tested concentrations 0.3-10.0 μM, vs vehicle): none of the tested concentrations was able to increase the proliferation rate
- time spent at the periphery (thigmotaxis) (Ts65Dn and euploid mice; Ts65Dn mice): spent a similar time as euploid mice
- escape latency (learning phase) (Ts65Dn and euploid mice; Ts65Dn mice, 5.0 mg/kg P3-P45-50, save for day 3): not statistically different from that of untreated euploid mice
- path length (Ts65Dn and euploid mice; Ts65Dn mice, day 5): shorter in comparison with their untreated counterparts
- proximity (distance from the platform) (Ts65Dn and euploid mice; Ts65Dn mice, day 5): significantly reduced in comparison with their untreated counterparts
- percentage of time spent at the periphery (Ts65Dn and euploid mice; Ts65Dn mice, significant vs untreated counterparts on day 5): underwent a reduction
- time spent at the periphery (thigmotaxis) (Ts65Dn and euploid mice; euploid mice): reduction in thigmotaxis
- escape latency (learning phase) (Ts65Dn and euploid mice; euploid mice, vs untreated, significant on day 2 only): latency was reduced

From patent US10945989B2, “Perinatal treatment with a flavonoid agonist of the TrkB receptor for BDNF rescues neurogenesis and behavior in the Ts65Dn mouse model of DS” (ALMA MATER STUDIORUM—Universita' di Bologna, priority 2017, dated 2021)
